Data from US8883759B2, “Anti-tumor effect potentiator” (Taiho Pharmaceutical Co., Ltd., priority 2009, dated 2014).

Tests used:
[1] = system: human breast cancer cell line MX-1; test: Enhancing activity for anti-tumor effect of TS-1 in nude mice with transplanted MX-1 (Test Example 2); type: in vivo, BALB/cA Jcl-nu mice; conditions: 200 mg/kg/day test drug + TS-1 8.3 mg/kg/day, oral, 14 days; MX-1 in nude mice; T/C on day 15 (FIG. 1)
Procedure: A human breast cancer cell line MX-1 was transplanted into the right-sided chest of 5- to 6-week-old male BALB/cA Jcl-nu mice. After transplantation, the major axis (mm) and minor axis (mm) of the tumor were measured, and the tumor volume (TV) was estimated by calculation. Using MiSTAT group separation program, the mice were then divided into individual groups so that the mean TV of each group is to be equal. The date at which mice were divided into the groups (n=5) was defined as day 0.
A test solution for tegafur/gimeracil/oteracil potassium (TS-1, manufactured by Taiho Pharmaceutical Co., Ltd.) single administration group, containing 0.5% hydroxypropylmethyl cellulose, 2.5% dimethylacetamide, 2.5% Tween 80, and 10% Cremophor as final concentrations, was prepared, provided at 8.3 mg/kg/day. The dose of TS-1 was represented by the amount of tegafur (FT). […]
TV on day 15 was measured, and relative tumor volume (RTV) was calculated. Then, T/C (%) was calculated according to a formula described below, and an anti-tumor effect was evaluated. […]

human dUTPase = human dUTPase (Homo sapiens (Human), UniProt P33316); test: Human dUTPase inhibitory effect ([5-3H]dUMP production from [5-3H]dUTP); type: biochemical
Procedure: The inhibitory activity of these compounds of the present invention against human dUTPase was determined by measuring the production of [5-^3H]deoxyuridine monophosphate (hereinafter, referred to as [5-^3H]dUMP) from [5-^3H]deoxyuridine triphosphate (hereinafter, referred to as [5-^3H]dUTP) according to a method shown below.
Specifically, 0.2 mL in total of a solution containing 0.02 mL of 1 μM dUTP (including 588 Bq/mL [5-^3H]dUTP), 0.05 mL of a 0.2 M Tris buffer solution (pH 7.4), 0.05 mL of 16 mM magnesium chloride, 0.02 mL of 20 mM 2-mercaptoethanol, 0.02 mL of a 1% aqueous solution of fetal bovine serum-derived albumin, 0.02 mL of varying concentrations of test compound solutions or pure water as a control, and 0.02 mL of a solution of human dUTPase, which is expressed in E. coli and then purified, was incubated at 37° C. for 15 minutes. After the incubation, the solution was heated at 100° C. for 1 minute to terminate the reaction, followed by centrifugation at 15000 rpm for 2 minutes. An aliquot (150 μL) of the supernatant obtained by centrifugation was analyzed using an Atlantis dC18 column (manufactured by Waters Corp., 4.6×250 mm) and a high-performance liquid chromatograph (manufactured by Shimadzu Corp., Prominence). […]
The inhibitory activity of the test compound was determined according to the formula shown below. […]

Sequence of human dUTPase (P33316 94-252): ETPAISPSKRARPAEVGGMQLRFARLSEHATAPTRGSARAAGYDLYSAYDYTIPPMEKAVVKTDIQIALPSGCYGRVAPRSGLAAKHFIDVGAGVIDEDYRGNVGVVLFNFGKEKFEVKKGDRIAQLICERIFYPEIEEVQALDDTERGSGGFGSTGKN

| Structure (SMILES) | enhancing activity for anti-tumor effect of TS-1 [1] | dUTPase inhibitory activity (in words) (human dUTPase; human dUTPase) | IC50 (human dUTPase; concentration inhibiting 50% of [5-3H]dUMP production by human dUTPase, 37° C., 15 minutes) |
| --- | --- | --- | --- |
| O=c1ccn(COCCCC2(NS(=O)(=O)c3cccc(OCC4CC4)c3)CC2)c(=O)[nH]1 [Comparative Compound 1, 3-(cyclopropylmethoxy)-N-(1-(3-((2,4-dioxo-3,4-dihydropyrimidin-1(2H)-yl)methoxy)propyl)cyclopropyl)benzenesulfonamide] | not observed | strong | – |
| CC[C@@H](NS(=O)(=O)CCCn1ccc(=O)[nH]c1=O)c1cccc(OCC2CC2)c1 [Compound 19, (R)—N-(1-(3-(cyclopropylmethoxy)phenyl)propyl)-3-(2,4-dioxo-3,4-dihydropyrimidin-1(2H)-yl)propane-1-sulfonamide] | – | – | 610 nM |
